The source of these data is patent US4853334A, “Method for the degradation of volatile chlorinated aliphatic hydrocarbons using pseudomonas fluorescens” (Microlife Technics, Inc., priority 1988, dated 1989).

Several values for one entry are separate records, joined by “and”; a condition that tells them apart may be missing. Equal values may be shown once.

Data set [1] has as its system Pseudomonas fluorescens NRRL-B-18296. The experiment in a line: Degradation of various chloroaliphatic carbon sources in minimal medium broth (Example 3). The format is cell-based. The settings on record: 100 ppm; mmo with 0.5% glucose, 0.005% yeast extract, 0.4% potassium nitrate; 10^6 bacteria/ml; 25° C., 24 hours. The method, then: (§1) In Examples 3 to 6, compounds of interest were quantitated using a Perkin-Elmer (model 8500) gas chromatograph equipped with an HS-6 headspace analyzer (Perkin-Elmer, Norwalk, CT). The instrument was fitted with a 6 foot stainless steel Sp2100 column (Supelco, Bellefonte, PA). Carrier gas flow rate (helium) was 20 ml/min. with an isothermal column temperature of 60° C. Injector and detector temperatures were 150° C. and 200° C. respectively.
(§2) All sample vials were equilibrated at 80° C. in the headspace analyzer for 10 minutes. Vial pressurization times of 30 seconds and injection times of 6 seconds were both controlled by programmed instrument time functions.
(§3) Calibrations were made by the external standard method using the internal data handling capabilities of the instrument. 100 ppm standards were prepared by dispensing 10 ul of the compounds into a serum bottle containing 100.0 g of chilled media analogous to experimental vials. Once the compound was completely dissolved, 2.00 g of the mixture was delivered by syringe to a headspace vial and sealed for subsequent headspace GC analysis.
(§4) Analysis of experimental vials was conducted by removing an aliquot by syringe and delivering 2.00 g to a headspace vial. Vials (6 ml) specified for use with the headspace analyzer were sealed using 19 mm TFE/silicone rubber septa and 20 mm crimp top seals (Alltech Associates, Deerfield, IL). A hand operated crimper was utilized.
The experiments were accomplished in 50 ml of minimal medium (mmo) that was modified. The modified minimal media (mmo) contained the sodium-potassium phosphate buffer at 0.06 M final concentration. The modified (mmo) was supplemented to a final concentration with 0.5% glucose, 0.005% yeast extract, 0.4% potassium nitrate and the volatile chloroaliphatic compound at 100 ppm. The flasks were inoculated with Pseudomonas fluorescens NRRL-B-18296 at 10^6 bacteria/ml. The remaining headspace in the vials was then filled with pure oxygen (approximately 60 ml) and sealed using 19 mm TFE/silicone rubber septa with 20mm crimp top seals. A hand operated crimper was utilized. The sealed vials were then shaken at 350 rpm on a New Brunswick gyrotary shaker (New Brunswick Scientific, Edison, NJ) at 25° C. for 24 hours.
Samples in triplicate (2.00 g) were removed after the 24 hour incubation. The samples were sealed in 6 ml vials and subjected to headspace analysis.
^1 values reported as percentage amounts of 100 ppm carbon source

Data set [2] shares this test system. The experiment in a line: Growth on volatile chlorinated carbon sources (minimal media, vapor phase). The format is cell-based. Also on record: key: +: Growth; -: no growth. To be noted: 72 hours at 25° C., minimal media (mmo), carbon source in vapor phase of sealed container. The method, then: ^1 Incubation was for 72 hours at 25° C. on minimal media
(mmo). Volatile carbon sources were supplied in the vapor phase of a
sealed container. +, Growth; -, no growth.

The test system is the same in data set [3]. The experiment in a line: Degradation of halogenated hydrocarbons by the strain (general statements). The format is cell-based.
Data set [4] shares this test system. The experiment in a line: Induction of degradation of 1,2-dichloroethane using various carbon sources (Example 6). The format is cell-based. The method, then:
as §1, §2
Calibrations were made by the external standard method using the internal data handling capabilities of the instrument. 100 ppm standards were prepared by dispensing 10 ul of the compounds into a serum bottle containing 100.0 g of chilled media analogous to experimental vials. Once the compound was completely dissolved, 2.00 g of the mixture was delivered by syringe to a headspace vial and sealed for subsequent headspace GC analysis. […]
Individual flasks were supplemented with the following carbon sources at 2mM: ethanol, sodium acetate, glucose, sodium succinate, sodium benzoate, ortho cresol or meta cresol. […] After incubation for 24 hours, the vials were analyzed directly on the headspace gas chromatograph.

Data set [5] shares this test system. The data set can be described thus: Degradation of a mixture of 1,2-dichloroethane and 1,2-dichloropropane, 0.1% glucose (Example 4). The format is cell-based. To be noted: for % degradation: mixture, 100 ppm each, 0.1% glucose, 0.4% potassium nitrate, 10^6 bacteria/ml, 25° C., 168 hours. On the procedure:
as §1, §2, §3, §4
The potassium nitrate provides an assured oxygen source for this strain, since the degradations must be conducted under aerobic conditions.
^1 Experiments were accomplished in 100 ml minimal medium (mmo) supplemented with 0.1% glucose, 100 ppm of 1,2-dichloroethane, 100 ppm of 1,2-dichloropropane, and 0.4% potassium nitrate. The flasks were inoculated with Pseudomonas fluorescens NRRL-B-18296 at 10^6 bacteria/ml, sealed and shaken at 350 rpm on a New Brunswick gyrotary shaker (New Brunswick Scientific, Edison, NJ) at 25° C. for 168 hours. The shaking provides further oxygen to the medium.

Data set [6] has the same test system. The data set can be described thus: Degradation of a mixture of 1,2-dichloroethane and 1,2-dichloropropane, 1.0% glucose (Example 5). The format is cell-based. The settings on record: glucose concentration increased to 1.0%. The method, then:
as §1, §2, §3
Analysis of experimental vials was conducted by removing an aliquot by syringe and delivering 2.00 g to a headspace vial. Vials (6 ml) specified for use with the headspace analyzer were sealed using 19 mm TFE/silicone rubber septa and 20 mm crimp top seals (Alltech Associates, Deerfield, IL). […]

Another data set has as its system Acinetobacter sp. The settings on record: induced by prior growth on phenol; Nelson et al.; cited from earlier work.
The conditions of data set [7]: formed by anaerobic methanogens; Bouwer 1983; cited from earlier work.

In the case of `CC(C)(Cl)Cl` [2,2-dichloropropane], the “% degradation” value in data set [1] is on record as 7%. In addition, in data set [2], the “Growth on carbon source” value is reported as “+”. The “Degradation by the strain (in words)” value in data set [3] is listed as “can be degraded”.

With `CC(O)C(=O)O` (stereo not drawn) [Sodium lactate], the “Suitability as carbon source for the strain” value in data set [4] (20 mM sodium lactate pre-culture, 25° C., 24 hours) is given as “effective carbon source”.

With `O=C[C@H](O)[C@@H](O)[C@H](O)[C@H](O)CO` [glucose], the “Induction of degradation of 1,2-dichloroethane” value in data set [4] (short time period of degradation) is listed as “best carbon source to induce the degradation of 1,2-dichloroethane”.

As to `ClCCCCl` [1,3-dichloropropane], in data set [1], the “% degradation” value is on record as 0%. Besides, the “Growth on carbon source” value in data set [2] is on record as “-”.

Turning to `ClCC(Cl)Cl` [1,1,2-trichloroethane], in data set [1], the “% degradation” value is reported as 23%. The “Growth on carbon source” value in data set [2] is reported as “+”. For the same compound, the “Degradation by the strain (in words)” value in data set [3] is given as “can be degraded”.

For the compound `CC(Cl)CCl` (stereo not drawn) [1,2-dichloropropane], the “% degradation” value in data set [1] is 3%; in data set [5], 32.1% and 32%. Moreover, the “Degradation upon extended degradation and supplementing with more glucose” value in data set [5] was “substantially completely degraded”. For the same compound, in data set [6], the “degradative rate, with respect to time” value is on record as “increased”. Moreover, the “Growth on carbon source” value in data set [2] is reported as “+”. Besides, in data set [3], the “Degradation by the strain (in words)” value is on record as “can be degraded”.

Turning to `ClC(Cl)=C(Cl)Cl` [tetrachloroethylene], in data set [1], the “% degradation” value was found to be 0%. For the same compound, in data set [2], the “Growth on carbon source” value is “-”.

As for `ClC(Cl)(Cl)Cl` [Carbon tetrachloride], in data set [3], the “Degradation by the strain (in words)” value is recorded as “not degraded”.

`ClC=C(Cl)Cl` [trichloroethylene]: the “aerobic metabolism (in words)” value in the data set on Acinetobacter sp. was “aerobic metabolism”. Also, the “% degradation” value in data set [1] was determined as 2%. The “Growth on carbon source” value in data set [2] was “+”. For the same compound, the “Degradation by the strain (in words)” value in data set [3] is given as “can be degraded”.

Regarding `ClCCCl` [1,2-dichloroethane], the “% degradation” value in data set [1] was found to be 10%. Besides, in data set [5], the “Degradation upon extended degradation and supplementing with more glucose” value was “substantially completely degraded”; the “% degradation” value was 23.3% and 23%. Further, the “degradative rate, with respect to time” value in data set [6] is “increased”. Further, the “Growth on carbon source” value in data set [2] was “+”. The “Degradation by the strain (in words)” value in data set [3] is “can be degraded”.

Take `CC(Cl)(Cl)Cl` [1,1,1-trichloroethane]: the “% degradation” value in data set [1] amounted to 0%. Moreover, the “Degradation by the strain (in words)” value in data set [3] is “not degraded”.

With `C=CCl` [vinyl chloride], the “toxicity relative to haloaliphatic hydrocarbons” value in data set [7] is “more toxic than the haloaliphatic hydrocarbons”.

As for `ClCCl` [dichloromethane], in data set [3], the “Degradation by the strain (in words)” value is recorded as “not degraded”.
